Experimental data taken from paper PMC7844219, “Antifibrotic effect of novel neutrophil gelatinase-associated lipocalin inhibitors in cardiac and renal disease models” (Scientific Reports, 2021).

Columns and labels:
[1] = target: T1, CYP3A4 (Homo sapiens, UniProt P08684); assay: CYP3A4 inhibition assay (Vivid CYP3A4 assay); format: in vitro ADME
T1 construct: purchased Thermo Fisher Scientific
Experimental: Several parameters have been evaluated to determine ADME-Tox profile of the compounds. Two specific toxicity assays have been performed to assess hepatoxicity and cardiotoxicity. Hepatotoxicity was evaluated in isolated hepatocytes from swiss mice and determined by the thiazolyl blue tetrazolium bromide colorimetric assay (sigma, St Louis, MO, USA). Cardiotoxicity was evaluated using the commercially available Predictor hERG fluorescence polarization kit (Thermo Fisher Scientific, Illinois, USA). Several absorption, distribution, metabolism, and excretion (ADME) assays have been carried out. The following experiments were undertaken: stability in human microsomes, binding to human plasma protein, and CYP3A4 inhibition assay (Vivid CYP3A4 assay, Thermo Fisher Scientific, Illinois, USA). Physico-chemical properties were also assessed such as aqueous solubility and chemical stability.

[2] = tested on: CKD mouse model; assay: Chronic kidney disease (CKD) mouse model, 5/6 (subtotal) nephrectomy; format: in vivo; design: Plasma creatinine level: unit not given here; settings: CKD mice
Experimental: Animals were housed in a climate-controlled facility with a 12-h/12-h light/dark cycle and provided free access to food and water. Experiments were approved by the Darwin ethics committee of Sorbonne University, and conducted according to the INSERM animal care and use committee guidelines. The NGAL inhibitor GP1 was incorporated in regular chow (A04, Safe, Augy, France) at the dose of 625 mg GP1/kg of chow to achieve a low dose of 100 mg/kg/day of GP1 administered to the mice (based on a daily consumption of 4 g of chow).
LV hemodynamic was assessed as described previously. Briefly, mice were anesthetized (chloral 320 mg/kg, IP) and the carotid artery cannulated with a pressure–volume catheter (SPR839, Millar-Instruments, USA) and the catheter was advanced into the LV. Pressure–volume loops were obtained at baseline and during loading by gently occluding the abdominal aorta. LV end-systolic and end-diastolic pressures, dP/dtmax/min, LV relaxation constant tau and were measured/calculated with IOX software (EMKA, France). Systolic BP was measured by tail-cuff plethysmography in trained conscious mice at weeks 8–10 using a BP2000 Visitech model. BP was measured every day in the same room at the same hour for 5 consecutive days. The BP measurements (expressed as mmHg) presented are the averages of the last 3 days.
Chronic kidney disease (CKD) was induced by subtotal nephrectomy in 8-weeks-old male mice (25–26 g). All surgeries were performed under ketamine/xylazine anaesthesia. Briefly, the left kidney was exposed, and the upper and lower poles were tied with a poly-glycolic acid suture line. The peritoneum and skin were then sutured, and the animals were returned to their individual cages. After 1 week of recovery, the second kidney was removed. Removal of the second kidney represents T0. Sham mice were subjected to the same surgical procedures but neither renal poles nor the right kidney were removed. Mice were monitored for any sign of distress, and those observed to be experiencing severe, unrelievable pain were euthanized. Renal failure was assessed by the measure of plasma creatinine and urea with an automatic analyser (Konelab 20i; Thermo Fisher Scientific, Vernon Hills, IL) at weeks 4 and 8 post-Nx.
In the MI model, heart was harvested after hemodynamics and the atria and the ventricles were separated and weighed individually. A section of the left ventricle was immersed in Bouin fixative solution. In the CKD model, kidneys were harvested and a section was immersed in paraformaldehyde fixative solution. After fixation, the sections were dehydrated and embedded in paraffin. From these sections, 5-μm thick histologic slices were obtained and were stained with Sirius Red. For the measurement of cardiac or renal collagen density, slides were examined and photographed under a light microscope (Zeiss) at 40× magnification. Collagen content was calculated as percentage of collagen area to total area of the image. Perivascular collagen was excluded from the analysis. For tubular lesions scoring, kidney slides were stained with Periodic Acid-Schiff kit (Sigma) and the score of tubules with injury (epithelial cell necrosis and detachment, and tubular dilation) was analyzed blinded to the experimental groups.
Frozen tissues (kidneys, heart) were homogenized in TRIzol (Life Technologies, Illinois, USA) using FastPrep beads (MP-Bio, CA, USA). cDNAs were generated using the Superscript II reverse transcriptase kit (Invitrogen,NY, USA), and qPCR was performed as previously described. Briefly, transcript levels were analysed in a CFX396 apparatus (Biorad). The reactions were performed in duplicate for each sample using the IQ SYBR Green supermix Kit (Biorad,CA, USA). To normalize gene expression, the geometric mean of multiple internal reference genes were used (RS16, Ubc, Hprt and Gapdh for mice experiments). Values in control conditions were set as 1 for each gene. The sequences of the specific primers are detailed in Table S8.

T1 sequence (P08684 whole entry): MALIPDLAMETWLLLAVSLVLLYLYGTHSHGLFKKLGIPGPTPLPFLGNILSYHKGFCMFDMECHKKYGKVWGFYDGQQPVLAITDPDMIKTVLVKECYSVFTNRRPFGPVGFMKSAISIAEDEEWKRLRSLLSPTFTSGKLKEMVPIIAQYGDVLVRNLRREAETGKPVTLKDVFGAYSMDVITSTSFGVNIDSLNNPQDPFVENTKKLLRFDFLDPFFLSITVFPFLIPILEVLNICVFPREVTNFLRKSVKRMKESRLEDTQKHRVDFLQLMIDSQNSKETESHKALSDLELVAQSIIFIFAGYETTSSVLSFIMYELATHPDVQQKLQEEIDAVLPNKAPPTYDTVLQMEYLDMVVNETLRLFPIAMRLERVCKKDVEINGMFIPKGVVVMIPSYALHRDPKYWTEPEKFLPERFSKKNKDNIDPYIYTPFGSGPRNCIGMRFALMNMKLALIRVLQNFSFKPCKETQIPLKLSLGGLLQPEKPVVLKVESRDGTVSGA

SMILES: CC(=O)c1cccc(S(=O)(=O)NCc2ccccc2-n2cccn2)c1 [GPZ614741]
- Processing by CYP3A4, in words [1]: partially processed by CYP3A4
- CyP 3A4 Inhibition % (100= no inhibition) ([1]; Table S5): 72.21 ± 1.94%
- KW/TL (kidney weight/tibia length) ([2]; GP1 100 mg/kg/day, two months, CKD untreated 11.5 ± 0.42): 11.3 ± 0.23 mg/mm
- Plasma urea level ([2]; GP1 100 mg/kg/day, two months, CKD untreated 15.2 ± 0.36): 16.74 ± 1.86 mM
- Plasma creatinine level ([2]; GP1 100 mg/kg/day, two months, CKD untreated 21.5 ± 1.45): 20.4 ± 1.54
- SBP (systolic blood pressure) ([2]; GP1 100 mg/kg/day, two months, CKD untreated 139.3 ± 2.22): 122.1 ± 2.58 mmHg
- Increased expression of profibrotic markers (Col I, fibronectin, αSMA) ([2]; kidney mRNA, Fig. 4C): blunted
- Functional parameters: plasma levels of urea or creatinine, in words ([2]; one and two months after CKD induction): no impact
- Increase in blood pressure, in words ([2]; two months of GP1): prevented the increase
- Renal tubulointerstitial fibrosis (Sirius red) ([2]; two months of GP1, Fig. 4A): strong antifibrotic effect
- Tubular injury (tubular lesion scoring, PAS) ([2]; × 3.1 in CKD vs. Sham, Fig. 4B): prevented
